According to publication PMC10733197, “Utilization of Rosuvastatin and Endogenous Biomarkers in Evaluating the Impact of Ritlecitinib on BCRP, OATP1B1, and OAT3 Transporter Activity” (Pharmaceutical Research, 2023):
Where “and” joins values, the source holds several entries; their conditions need not be identical. Equal values may be shown once. Read-outs that look alike come from different tables or passages of the source. Each block holds one molecule with its values, some of them ahead of it.

Key:
OATP1B1 [1] = biological target: T1, OATP1B1 (Homo sapiens, UniProt Q9Y6L6); conditions: CP-I 0.1 µM; 30-minute pre-incubation; HEK293; published data; ref 1 (Rodrigues AD 2023); cited from earlier work
T1 construct: expressed in transfected cells; host or cells: HEK293
T1 sequence (Q9Y6L6 1-691): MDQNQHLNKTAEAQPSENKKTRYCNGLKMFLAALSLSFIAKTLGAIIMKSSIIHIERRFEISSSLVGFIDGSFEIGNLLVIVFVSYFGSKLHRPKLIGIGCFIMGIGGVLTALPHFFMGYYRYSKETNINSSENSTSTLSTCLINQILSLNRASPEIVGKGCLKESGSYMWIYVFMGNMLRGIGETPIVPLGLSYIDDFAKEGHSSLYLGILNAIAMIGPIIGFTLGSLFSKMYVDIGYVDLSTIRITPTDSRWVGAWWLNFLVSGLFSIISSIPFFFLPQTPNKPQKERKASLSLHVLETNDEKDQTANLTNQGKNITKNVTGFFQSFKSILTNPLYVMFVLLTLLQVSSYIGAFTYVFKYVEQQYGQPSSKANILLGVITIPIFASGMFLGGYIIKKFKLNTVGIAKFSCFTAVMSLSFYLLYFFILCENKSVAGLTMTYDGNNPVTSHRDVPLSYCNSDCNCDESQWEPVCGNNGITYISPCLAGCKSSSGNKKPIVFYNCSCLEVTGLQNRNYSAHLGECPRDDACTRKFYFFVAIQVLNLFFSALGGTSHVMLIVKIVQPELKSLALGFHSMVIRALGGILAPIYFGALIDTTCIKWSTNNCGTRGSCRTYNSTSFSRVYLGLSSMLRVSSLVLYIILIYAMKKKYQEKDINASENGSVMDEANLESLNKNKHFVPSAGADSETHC

OATP1B3 = biological target: T2, OATP1B3 (Homo sapiens, UniProt Q9NPD5); conditions: CP-I 0.1 µM; 30-minute pre-incubation; HEK293; published data; ref 1 (Rodrigues AD 2023); cited from earlier work
T2 construct: expressed in transfected cells; host or cells: HEK293
T2 sequence (Q9NPD5 1-702): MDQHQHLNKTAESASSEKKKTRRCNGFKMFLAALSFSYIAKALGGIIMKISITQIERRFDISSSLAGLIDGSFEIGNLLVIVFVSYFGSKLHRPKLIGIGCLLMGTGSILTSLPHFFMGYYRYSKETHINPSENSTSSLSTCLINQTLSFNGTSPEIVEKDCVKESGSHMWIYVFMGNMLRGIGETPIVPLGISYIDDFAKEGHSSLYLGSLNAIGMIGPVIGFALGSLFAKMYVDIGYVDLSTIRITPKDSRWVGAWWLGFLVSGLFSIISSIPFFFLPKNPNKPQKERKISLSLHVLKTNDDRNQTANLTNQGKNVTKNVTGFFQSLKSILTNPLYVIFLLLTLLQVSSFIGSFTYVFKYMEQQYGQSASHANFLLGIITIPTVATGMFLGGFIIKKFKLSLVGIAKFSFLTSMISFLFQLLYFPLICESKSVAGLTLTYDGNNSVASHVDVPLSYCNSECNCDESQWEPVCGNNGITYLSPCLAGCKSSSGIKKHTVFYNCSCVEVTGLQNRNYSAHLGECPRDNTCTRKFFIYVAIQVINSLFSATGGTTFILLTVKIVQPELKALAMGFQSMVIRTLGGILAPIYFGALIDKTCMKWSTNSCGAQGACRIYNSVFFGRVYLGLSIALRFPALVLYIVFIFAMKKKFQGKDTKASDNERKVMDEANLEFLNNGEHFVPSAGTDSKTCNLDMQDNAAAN

[2] = cited from earlier work; for Imax,inlet,u: ka = 0.1 min^-1 assumed, ref 1 (Rodrigues AD 2023)
OATP1B1 [3] = conditions: cited from earlier work; for ∆CP-I Observed: AUC ratio or single CP-I concentration ratio ± perpetrator, ref 1 (Rodrigues AD 2023)
OCT1 = system: OCT1; set-up: method as in PMID 36807251; conditions: cited from earlier work
OAT1/3 [4] = test: Plasma PDA as endogenous biomarker of OAT1/3 in clinical DDI studies; format: in vivo, human; conditions: for AUC24 / Cmax: geometric mean (%CV)
Protocol: (§1) Blood and urine samples were collected at prespecified timepoints. Rosuvastatin plasma samples (~ 6 mL) were collected predose and at 0.5, 1, 2, 3, 4, 5, 6, 8, 10, 12, 16, 24, 36, 48, and 72 h postdose. CP-I and PDA plasma samples (~ 6 mL) were collected predose and at 0.5, 1, 2, 3, 4, 5, 6, 8, 10, 12, 16, and 24 h post rosuvastatin dosing. Rosuvastatin urine samples were collected at predose, 0–6 h, 6–12, 12–24, 24–48, and 48–72 h postdose. Each participant emptied their bladder just prior to dosing.
Quantification of PDA was conducted by mass spectrometry according to Towner et al.. […] Mass spectrometry detection of the analytes were achieved using a SCIEX API QTrap 5500 mass spectrometry and a Turbo V electrospray ionization source in negative ion mode. Plasma samples were prepared by protein precipitation by spiking 50 μL of sample with 200 μL of 300 ng/mL 4-aminosalicylic acid internal standard. After vortexing/centrifugation, 200 μL of supernatant was transferred and 1 μL injections were analyzed. A 1/x^2 weighted linear regression was used to quantitate sample concentrations.
(§2) The PK parameters for rosuvastatin, CP-I and PDA were calculated for each participant and each treatment using Pfizer’s internally validated electronic noncompartmental analysis software (eNCA) version 2.4.4. Samples below the lower limit of quantitation were set to zero for the PK analysis. Actual sample collection times were used for the PK analysis.
(§3) Natural log transformed area under the plasma concentration-time profile from time 0 extrapolated to infinity (AUCinf), maximum plasma concentration (Cmax), and apparent renal clearance (CLr) were analyzed using a mixed effect model with treatment as a fixed effect and participant as a random effect (SAS version 9.4; SAS Institute, Cary, NC, USA). Estimates of the adjusted mean differences (Test-Reference) and corresponding 90% CIs were obtained from the model. The adjusted mean difference and 90% CIs for the differences were exponentiated to provide estimates of the ratio of adjusted geometric means (Test/Reference) and 90% CIs for the ratios. Rosuvastatin alone was the reference treatment, while the rosuvastatin coadministered with ritlecitinib was the Test treatment.

OAT1/3 [5] = conditions: plasma PDA in the presence of probenecid; cited from earlier work
OATP1B1 [6] = test: Plasma CP-I as endogenous biomarker of OATP1B1 in clinical DDI studies; format: in vivo, human; set-up: AUC24 / Cmax: unit not given beside the values; conditions: for AUC24 / Cmax: geometric mean (%CV)
Protocol: as §1
Quantification of CP-I was conducted by mass spectrometry according to King-Ahmad et al.. Plasma samples were spiked with stable label internal standard (^15N4-coproporphyrin I). CP-I was isolated through supported liquid extraction. The eluate was evaporated under a nitrogen stream at approximately 45 °C, and the remaining residue was reconstituted with 125 μL of water/acetonitrile/formic acid (750:250: 1, v/v/v). The final extract was analyzed via UPLC® with column switching and MS/MS detection using positive ion electrospray. A linear, 1/x^2 weighted, least-squares regression algorithm was used to quantitate sample concentrations.
as §2, §3

[7] = rosuvastatin 10 mg + ritlecitinib 200 mg QD
[8] = with vs without ritlecitinib 200 mg QD

Molecule: CCC(C)n1ncn(-c2ccc(N3CCN(c4ccc(OCC5COC(Cn6cncn6)(c6ccc(Cl)cc6Cl)O5)cc4)CC3)cc2)c1=O (stereo not shown) [Itraconazole]
IC50 (OATP1B1 [1]): 20000 nM | IC50 (OATP1B3): 20000 nM | Imax,inlet,u ([2]; inhibitor dose 200 mg): 0.3 µM | ∆CP-I Observed (OATP1B1 [3]; inhibitor dose 200 mg): 0.9

Molecule: CNS(=O)(=O)Cc1ccc2[nH]cc(CCN(C)C)c2c1 [sumatriptan]
increase in AUCinf (OCT1; sumatriptan with ritlecitinib coadministration, due to OCT1 inhibition): 30% | decrease in Cmax (OCT1; sumatriptan with ritlecitinib coadministration): 13% | exposure increase (OCT1; sumatriptan, liver OCT1 inhibition by ritlecitinib and M2): up to 50%

Molecule: COc1ccc2c(O[C@@H]3C[C@H]4C(=O)N[C@]5(C(=O)NS(=O)(=O)C6CC6)C[C@H]5/C=C\CCCCN(C)C(=O)[C@@H]4C3)cc(-c3nc(C(C)C)cs3)nc2c1C [Simeprevir]
IC50 (OATP1B1 [1]): 1000 nM | IC50 (OATP1B3): 500 nM | Imax,inlet,u ([2]; inhibitor dose 150 mg): 0.002 µM | ∆CP-I Observed (OATP1B1 [3]; inhibitor dose 150 mg): 1.4

Molecule: CC(=O)O[C@H]1C(=O)[C@@]2(C)[C@H]([C@H](OC(=O)c3ccccc3)[C@]3(O)C[C@H](OC(=O)[C@H](O)[C@@H](NC(=O)c4ccccc4)c4ccccc4)C(C)=C1C3(C)C)[C@]1(OC(C)=O)CO[C@@H]1C[C@@H]2O [Paclitaxel]
IC50 (OATP1B3): 700 nM | ∆CP-I Observed (OATP1B1 [3]; inhibitor dose 200 mg): 2.8

Molecule: COc1ccc([C@@H]2Sc3ccccc3N(CCN(C)C)C(=O)[C@@H]2OC(C)=O)cc1 [Diltiazem]
IC50 (OATP1B1 [1]): 100000 nM | IC50 (OATP1B3): 175000 nM

AUC24 (OAT1/3 [4]; [7]): 69.47 (33) | Cmax (OAT1/3 [4]; [7]): 3.765 (28) | AUC24 (OAT1/3 [4]; rosuvastatin 10 mg alone): 67.34 (30) | Cmax (OAT1/3 [4]; rosuvastatin 10 mg alone): 3.664 (29) | AUC24 % Ratio (Test/Reference) of Adjusted Geometric Means (90% CI) (OAT1/3 [4]; [8]): 103.16 (87.65, 121.42) % | Cmax % Ratio (Test/Reference) of Adjusted Geometric Means (90% CI) (OAT1/3 [4]; [8]): 102.76 (87.58, 120.58) %
Molecule: Cc1ncc(CO)c(C(=O)O)c1O [PDA, pyridoxic acid]
increase in plasma AUC (OAT1/3 [5]): 3.1 fold

Molecule: CO[C@H]1/C=C/O[C@@]2(C)Oc3c(C)c(O)c4c(O)c(c(/C=N/N5CCN(C)CC5)c(O)c4c3C2=O)NC(=O)/C(C)=C\C=C\[C@H](C)[C@H](O)[C@@H](C)[C@@H](O)[C@@H](C)[C@H](OC(C)=O)[C@@H]1C [Rifampicin]
IC50 (OATP1B3): 300 nM | Imax,inlet,u ([2]; inhibitor dose 150 mg): 3 µM | Imax,inlet,u ([2]; inhibitor dose 300 mg): 5.9 µM | Imax,inlet,u ([2]; inhibitor dose 600 mg): 11.9 µM | ∆CP-I Observed (OATP1B1 [3]; inhibitor dose 150 mg): 1.5 | ∆CP-I Observed (OATP1B1 [3]; inhibitor dose 300 mg): 2.4 and 2.3 | ∆CP-I Observed (OATP1B1 [3]; inhibitor dose 600 mg): 3.5 and 3.7 and 4 and 5.6

Molecule: CC/C(=C(/c1ccc(/C=C/C(=O)O)cc1)c1ccc2[nH]ncc2c1)c1ccc(F)cc1Cl [GDC-0810]
IC50 (OATP1B1 [1]): 200 nM | IC50 (OATP1B3): 900 nM | Imax,inlet,u ([2]; inhibitor dose 600 mg): 0.009 µM | ∆CP-I Observed (OATP1B1 [3]; inhibitor dose 600 mg): 1.5

Molecule: C[C@H]1CCN1c1nc(N2C[C@@H]3[C@@H](CC(=O)O)[C@@H]3C2)cc(C(F)(F)F)n1 [PF-06835919]
IC50 (OATP1B1 [1]): 4300 nM | IC50 (OATP1B3): 5600 nM | Imax,inlet,u ([2]; inhibitor dose 50 mg): 1.5 µM | Imax,inlet,u ([2]; inhibitor dose 100 mg): 2.5 µM | Imax,inlet,u ([2]; inhibitor dose 280 mg): 8.2 µM | Imax,inlet,u ([2]; inhibitor dose 400 mg): 10.3 µM | Imax,inlet,u ([2]; inhibitor dose 600 mg): 15.3 µM | ∆CP-I Observed (OATP1B1 [3]; inhibitor dose 50 mg): 1.1 | ∆CP-I Observed (OATP1B1 [3]; inhibitor dose 100 mg): 1.2 | ∆CP-I Observed (OATP1B1 [3]; inhibitor dose 280 mg): 1.5 | ∆CP-I Observed (OATP1B1 [3]; inhibitor dose 400 mg): 1.3 | ∆CP-I Observed (OATP1B1 [3]; inhibitor dose 600 mg): 1.8

Molecule: C[C@H]1CN(C2COC2)CCN1c1ccc(Nc2cc(-c3ccnc(N4CCn5c(cc6c5CC(C)(C)C6)C4=O)c3CO)cn(C)c2=O)nc1 [Fenebrutinib]
IC50 (OATP1B1 [1]): 6100 nM | IC50 (OATP1B3): 1200 nM | Imax,inlet,u ([2]; inhibitor dose 200 mg): 4.2 µM | ∆CP-I Observed (OATP1B1 [3]; inhibitor dose 200 mg): 1

AUC24 (OATP1B1 [6]; [7]): 8729 (21) | Cmax (OATP1B1 [6]; [7]): 418.8 (19) | AUC24 (OATP1B1 [6]; rosuvastatin 10 mg alone): 8915 (21) | Cmax (OATP1B1 [6]; rosuvastatin 10 mg alone): 427.1 (22) | AUC24 % Ratio (Test/Reference) of Adjusted Geometric Means (90% CI) (OATP1B1 [6]; [8]): 97.91 (92.24, 103.94) % | Cmax % Ratio (Test/Reference) of Adjusted Geometric Means (90% CI) (OATP1B1 [6]; [8]): 98.06 (93.13, 103.26) %
Molecule: coproporphyrin I [CP-I]
increase in exposure (AUC24) (OATP1B1 [3]; plasma CP-I with coadministration of rifampicin vs rosuvastatin alone): 4.0 fold

Molecule: CCCN(CCC)S(=O)(=O)c1ccc(C(=O)O)cc1 [Probenecid]
IC50 (OATP1B3): 118000 nM | Cmax,u ([2]; inhibitor dose 1000 mg): 22 µM | Imax,inlet,u ([2]; inhibitor dose 1,000 mg): 56.6 µM | ∆CP-I Observed (OATP1B1 [3]; inhibitor dose 1,000 mg): 1.4

Molecule: O=C(O)[C@H]1C2CCC(CC2)[C@@H]1Nc1nc(-c2c[nH]c3ncc(F)cc23)ncc1F [Pimodivir]
IC50 (OATP1B1 [1]): 500 nM | IC50 (OATP1B3): 1100 nM | Imax,inlet,u ([2]; inhibitor dose 600 mg): 0.4 µM | ∆CP-I Observed (OATP1B1 [3]; inhibitor dose 600 mg): 1.4
